In PubChem BioAssay AID1259411 (Chemical Carcinogenesis Research Information System (CCRIS), 2018):
Calls of active or inactive are those of the source. The rule behind the calls is not given here.

Test system: rodent carcinogenicity bioassays, tumor incidence
Test: CCRIS carcinogenicity studies
Method in brief: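 NCI-built, expert-reviewed records of carcinogenicity and related test outcomes (mutagenicity, tumor promotion/inhibition) compiled from published and report sources, historical span 1985-2011, not updated.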

Which carcinogen call (Species: Mouse, Strain/Sex: CD-1/Female (60/Group), Route: Oral, Dose: 0, 1.11, 3.20, 10.4, 39.2 mg/kg/day of 93.3% fosthiazate in diet for 104 wk, study duration 102 wk, Dose: 0, 1.11, 3.20, 10.4, 39.2 mg/kg/day of 93.3% fosthiazate in diet for 104 wk, study duration 102 wk) does the source give for `CCOP(=O)(SC(C)CC)N1CCSC1=O` (centres undefined) here?
Its carcinogen call is “inactive; negative”.

What about the carcinogen call (Species: Mouse, Strain/Sex: CD-1/Male (60/Group), Route: Oral, Dose: 0, 1.02, 3.10, 10.3, 30.5 mg/kg/day of 93.3% fosthiazate in diet for 104 wk, study duration 102 wk, Dose: 0, 1.02, 3.10, 10.3, 30.5 mg/kg/day of 93.3% fosthiazate in diet for 104 wk, study duration 102 wk) of the same molecule?
The carcinogen call was “inactive; negative”.

And the carcinogen call (Species: Rat, Strain/Sex: CD/Female (50/Group), Route: Oral, Dose: 0, 0.051, 0.50, 2.45, 11.69 mg/kg/day of 93.3% fosthiazate in diet for 104 wk, study duration 104 wk, Dose: 0, 0.051, 0.50, 2.45, 11.69 mg/kg/day of 93.3% fosthiazate in diet for 104 wk, study duration 104 wk)?
Its carcinogen call is “inactive; negative”.

And the carcinogen call (Species: Rat, Strain/Sex: CD/Male (50/Group), Route: Oral, Dose: 0, 0.039, 0.38, 1.94, 8.34 mg/kg/day of 93.3% fosthiazate in diet for 104 wk, study duration 104 wk, Dose: 0, 0.039, 0.38, 1.94, 8.34 mg/kg/day of 93.3% fosthiazate in diet for 104 wk, study duration 104 wk)?
The carcinogen call was “inactive; negative”.

Which carcinogen call (Species: HAMSTER, Strain/Sex: SYRIAN/MALE, Route: SUBCUTANEOUS IMPLANT, Dose: 0, 20 MG IN PELLETS IMPLANTED EVERY 2.5 MO FOR 9 MO (STUDY DURATION: 9 MO), Tumor Site: Type of Lesion: KIDNEY: TUMOR) does the source give for `C[C@]12CC[C@@H]3c4ccc(O)cc4CC[C@H]3[C@@H]1C[C@@H](O)C2=O` here?
Its carcinogen call is “active; positive”.

Which carcinogen call (Species: Mouse, Strain/Sex: Swiss-Webster Derived Tac(SW)fBR/Female (50/sex/group), Route: Oral, Dose: 0, 50, 200, 500, 600 ppm in feed for 20-21 months, Dose: 0, 50, 200, 500, 600 ppm in feed for 20-21 months) does the source give for `Cc1c(COC(=O)[C@@H]2[C@H](/C=C(\Cl)C(F)(F)F)C2(C)C)cccc1-c1ccccc1` here?
Its carcinogen call is “inactive; negative; purity 88.35% (98% cis- and 2% trans-isomer)”.

And the carcinogen call (Species: Mouse, Strain/Sex: Swiss-Webster Derived Tac(SW)fBR/Male (50/sex/group), Route: Oral, Dose: 0, 50, 200, 500, 600 ppm in feed for 20-21 months, Dose: 0, 50, 200, 500, 600 ppm in feed for 20-21 months, Tumor Site: Type of Lesion: Urinary bladder: Leiomyosarcoma (Dose related increase, 29% at 600 ppm))?
The carcinogen call was “active; positive; purity 88.35% (98% cis- and 2% trans-isomer)”.

What about the carcinogen call (Species: Rat, Strain/Sex: Sprague-Dawley/Female (50/sex/group), Route: Oral, Dose: 0, 12, 50, 100, 200 ppm in feed for 2 yr, Dose: 0, 12, 50, 100, 200 ppm in feed for 2 yr) of the same molecule?
The carcinogen call was “inactive; negative; purity 88.35% (98% cis- and 2% trans-isomer)”.

And the carcinogen call (Species: Rat, Strain/Sex: Sprague-Dawley/Male (60/group), Route: Oral, Dose: 0, 12, 50, 100, 200 ppm in feed for 2 yr, Dose: 0, 12, 50, 100, 200 ppm in feed for 2 yr)?
The carcinogen call was “inactive; negative; purity 88.35% (98% cis- and 2% trans-isomer)”.

What does the source list for `C=CCOC(=O)c1ccccc1C(=O)OCC=C`?
carcinogen call (Species: MOUSE, Strain/Sex: B6C3F1/FEMALE, Route: GAVAGE, Dose: 0, 150, 300 MG/KG IN CORN OIL FOR 5 D/WK FOR 103 WK (STUDY DURATION: 103 WK), Dose: 0, 150, 300 MG/KG IN CORN OIL FOR 5 D/WK FOR 103 WK (STUDY DURATION: 103 WK), Tumor Site: Type of Lesion: FORESTOMACH: SQUAMOUS CELL PAPILLOMA): equivocal; carcinogen call (Species: MOUSE, Strain/Sex: B6C3F1/MALE, Route: GAVAGE, Dose: 0, 150, 300 MG/KG IN CORN OIL FOR 5 D/WK FOR 103 WK (STUDY DURATION: 103 WK), Dose: 0, 150, 300 MG/KG IN CORN OIL FOR 5 D/WK FOR 103 WK (STUDY DURATION: 103 WK), Tumor Site: Type of Lesion: FORESTOMACH: SQUAMOUS CELL PAPILLOMA, HEMATOPOIETIC SYSTEM: LYMPHOMA): equivocal; carcinogen call (Species: RAT, Strain/Sex: F344/FEMALE, Route: GAVAGE, Dose: 0, 50, 100 MG/KG IN CORN OIL 5 D/WK FOR 103 WK (STUDY DURATION: 105 WK), Dose: 0, 50, 100 MG/KG IN CORN OIL 5 D/WK FOR 103 WK (STUDY DURATION: 105 WK), Tumor Site: Type of Lesion: HEMATOPOIETIC SYSTEM: MONONUCLEAR CELL LEUKEMIA): equivocal; carcinogen call (Species: RAT, Strain/Sex: F344/MALE, Route: GAVAGE, Dose: 0, 50, 100 MG/KG IN CORN OIL 5 D/WK FOR 103 WK (STUDY DURATION: 105 WK), Dose: 0, 50, 100 MG/KG IN CORN OIL 5 D/WK FOR 103 WK (STUDY DURATION: 105 WK)): inactive; negative

For `CCCNN`, which carcinogen call (Species: MOUSE, Strain/Sex: SWISS/FEMALE, Route: ORAL, Dose: 0, 0.025% SOLUTION IN DRINKING WATER DAILY FOR LIFE FOR AND AVERAGE DAILY INTAKE OF 0, 3.0 MG (STUDY DURATION: 100 WK), Dose: 0, 0.025% SOLUTION IN DRINKING WATER DAILY FOR LIFE FOR AND AVERAGE DAILY INTAKE OF 0, 3.0 MG (STUDY DURATION: 100 WK), Tumor Site: Type of Lesion: LUNG: ADENOMA, LUNG: ADENOMA OR ADENOCARCINOMA) is on record?
Its carcinogen call is “active; positive”.

What about the carcinogen call (Species: MOUSE, Strain/Sex: SWISS/MALE, Route: ORAL, Dose: 0, 0.025% SOLUTION IN DRINKING WATER DAILY FOR LIFE FOR AN AVERAGE DAILY INTAKE OF 0, 2.9 MG (STUDY DURATION: 100 WK), Dose: 0, 0.025% SOLUTION IN DRINKING WATER DAILY FOR LIFE FOR AN AVERAGE DAILY INTAKE OF 0, 2.9 MG (STUDY DURATION: 100 WK), Tumor Site: Type of Lesion: LUNG: ADENOMA, LUNG: ADENOMA OR ADENOCARCINOMA) of the same molecule?
The carcinogen call was “active; positive”.

How did the carcinogen call (Species: RAT, Strain/Sex: F344/FEMALE, Route: INTRAVESICAL, Dose: 0, 374 MG (TOTAL DOSE) INJECTED INTO BLADDER 2/WK OVER 36 WK (STUDY DURATION: 102 WK), Tumor Site: Type of Lesion: NASAL CAVITY: TUMOR) turn out when `O=NN1CCN(N=O)CC1` was run?
Its carcinogen call is “active; positive”.

How did the carcinogen call (Species: MOUSE, Strain/Sex: B6C3F1/FEMALE, Route: INHALATION, Dose: 0, 10, 30, 100 MG/M3 6 HR/D 5 D/WK FOR 105 WK (STUDY DURATION: 105 WK), Dose: 0, 10, 30, 100 MG/M3 6 HR/D 5 D/WK FOR 105 WK (STUDY DURATION: 105 WK), Tumor Site: Type of Lesion: LUNG: ALVEOLAR/BRONCHIOLAR ADENOMA, ALVEOLAR/BRONCHIOLAR ADENOMA OR CARCINOMA) turn out when `[O]=[Mo](=[O])=[O]` was run?
Its carcinogen call is “active; positive”.

What about the carcinogen call (Species: MOUSE, Strain/Sex: B6C3F1/MALE, Route: INHALATION, Dose: 0, 10, 30, 100 MG/M3 6 HR/D 5 D/WK FOR 105 WK (STUDY DURATION: 105 WK), Dose: 0, 10, 30, 100 MG/M3 6 HR/D 5 D/WK FOR 105 WK (STUDY DURATION: 105 WK), Tumor Site: Type of Lesion: LUNG: ALVEOLAR/BRONCHIOLAR CARCINOMA) of the same molecule?
Its carcinogen call is “active; positive”.

And the carcinogen call (Species: RAT, Strain/Sex: F344/FEMALE, Route: INHALATION, Dose: 0, 10, 30, 100 MG/M3 6 HR/D 5 D/WK FOR 106 WK (STUDY DURATION: 106 WK), Dose: 0, 10, 30, 100 MG/M3 6 HR/D 5 D/WK FOR 106 WK (STUDY DURATION: 106 WK))?
The carcinogen call was “inactive; negative”.

And the carcinogen call (Species: RAT, Strain/Sex: F344/MALE, Route: INHALATION, Dose: 0, 10, 30, 100 MG/M3 6 HR/D 5 D/WK FOR 106 WK (STUDY DURATION: 106 WK), Dose: 0, 10, 30, 100 MG/M3 6 HR/D 5 D/WK FOR 106 WK (STUDY DURATION: 106 WK), Tumor Site: Type of Lesion: LUNG: ALVEOLAR/BRONCHIOLAR ADENOMA, ALVEOLAR/BRONCHIOLAR CARCINOMA, ALVEOLAR/BRONCHIOLAR ADENOMA OR CARCINOMA)?
Its carcinogen call is “equivocal”.

How did the carcinogen call (Species: HAMSTER, Route: SUBCUTANEOUS, Tumor Site: Type of Lesion: TRACHEA, NASAL CAVITY, ESOPHAGUS, FORESTOMACH, LUNG, LIVER, Tumor Site: Type of Lesion: TRACHEA, NASAL CAVITY, ESOPHAGUS, FORESTOMACH, LUNG, LIVER) turn out when `O=NN1CCCCC1` was run?
Its carcinogen call is “active; positive”.

And the carcinogen call (Species: HAMSTER, Strain/Sex: SYRIAN/MALE,FEMALE, Route: ORAL, Dose: 0.006, 0.025, 0.05% IN DRINKING WATER FOR LIFE, Dose: 0.006, 0.025, 0.05% IN DRINKING WATER FOR LIFE, Tumor Site: Type of Lesion: RESPIRATORY TRACT (LARYNX, PHARYNX, TRACHEA): PAPILLOMA, EPIDERMOID CARCINOMA, PAPILLARY POLYP, FORESTOMACH: PAPILLOMA)?
The carcinogen call was “active; positive”.

What about the carcinogen call (Species: MONKEY, Route: ORAL, Tumor Site: Type of Lesion: LIVER) of the same molecule?
Its carcinogen call is “active; positive”.

And the carcinogen call (Species: MOUSE, Route: INTRAPERITONEAL, Tumor Site: Type of Lesion: LUNG)?
Its carcinogen call is “active; positive”.

What about the carcinogen call (Species: MOUSE, Route: ORAL, Tumor Site: Type of Lesion: FORESTOMACH, LIVER, LUNG, Tumor Site: Type of Lesion: FORESTOMACH, LIVER, LUNG) of the same molecule?
Its carcinogen call is “active; positive”.

And the carcinogen call (Species: RAT, Route: INTRAVENOUS, Tumor Site: Type of Lesion: ESOPHAGUS, PHARYNX)?
The carcinogen call was “active; positive”.

And the carcinogen call (Species: RAT, Route: ORAL, Tumor Site: Type of Lesion: ESOPHAGUS, LIVER)?
Its carcinogen call is “active; positive”.

What about the carcinogen call (Species: RAT, Route: SUBCUTANEOUS, Tumor Site: Type of Lesion: ESOPHAGUS, NASAL CAVITY) of the same molecule?
Its carcinogen call is “active; positive”.

What about the carcinogen call (Species: RAT, Strain/Sex: F344/FEMALE, Route: ORAL, Dose: 0.9 MILLIMOLAR SOLUTION (100 MG/L) IN DRINKING WATER 5/WK FOR 28 WK, Tumor Site: Type of Lesion: ESOPHAGUS: PAPILLOMA, CARCINOMA) of the same molecule?
Its carcinogen call is “active; positive”.
